Assay results taken from US9201014B2, “Development of photostable near-IR cyanine dyes for in vivo imaging” (National University of Singapore, priority 2010, dated 2015).
Blank lines part the entries; values can stand above or below the molecule they belong to.

What was measured:
[1] = Photobleaching of CyNE790 and ICG-sulfo-OSu in PBS; assay type: physicochemical; conditions: for maximum relative fluorescence units (rfu): photobleaching experiments
Source text: CyNE790 was also compared to ICG-sulfo-OSu, a commercially available succinimidyl ester of ICG (for chemical structures of CyNE790 and ICG-sulfo-OSu, see FIG. 8).

[2] = Fluorescence and photostability of dye-labeled EGFR-IgG2a antibodies; assay type: physicochemical; conditions: conjugated to EGFR-IgG2a, vs ICG label
Method: To compare CyNE790 and ICG-sulfo-OSu for in vivo imaging studies, each reactive ester was conjugated to a monoclonal anti-epidermal growth factor receptor (EGFR) antibody.
100 μg of anti-EGFR-IgG2a were washed with PBS using a Microcon 3K filter (Millipore), and re-suspended in 100 μL of Na2CO3—NaHCO3 buffer (pH 9.2). 20 equiv of CyNE790 or ICG-sulfo-OSu (typically 1.0-1.2 μL of a 10 mM solution in DMSO) were added and the whole mixture was shaken in the dark for 2 hours. The excess dye was removed by washing with PBS (3×500 μL) using a Microcon 3K filter (Millipore) (3 rounds at 14,000 rpm at 4° C. for 60 min).
[…] in PBS (pH 7.3) were fixed in a glass coverslide, and irradiated with a diode laser (95 mW, 740 nm, time frame: 500 ms, no delay). Emission was recorded with a NIR-enhanced CCD camera (Andor Technology) adapted to an Eclipse Ti-U microscope (40× magnification, filter cube 750/800), and images were processed using the software NIS-Elements 3.10. The resulting values are represented as means (n=3), and fitted to a non-linear regression one-phase exponential decay (GraphPad Prism 5.0).

[3] = Formation of aggregates: absorbance spectrum in DMSO vs PBS; assay type: physicochemical; conditions: for formation of aggregates in aqueous solution: spectral profile DMSO vs PBS
[4] = Photophysical properties of CyNE790 and ICG-sulfo-OSu; assay type: physicochemical; conditions: for Quantum Yield (DMSO): ICG as standard; for Quantum Yield (aqueous media) / ε (aqueous media): PBS pH 7.3, 0.1% DMSO
Method: FIG. 7A is an absorbance spectrum of 10-μM solutions of CyNA-414, CyNE790, ICG and ICG-sulfo-OSu in DMSO and PBS.
FIG. […]
After corroborating the spectral properties of CyNE790 as a fluorescent NIR dye, its applicability for protein conjugation was assessed by comparing CyNE790 to ICG-sulfo-OSu, the commercially available succinidimyl ester of ICG. […] However, the application of ICG to molecular imaging has been limited because its fluorescence is drastically quenched after protein conjugation.

[5] = system: primary mouse peritoneal cavity cells; experiment: Validation of macrophage selectivity (peritoneal cells, Raw 264.7, splenocytes); assay type: cell-based; conditions: 1 μM, 1 hour
Method: To validate the selectivity of CyNA-374, primary mouse peritoneal cavity cells were prepared. The identity of the mouse peritoneal cells was confirmed with CD11b macrophage antibody and flow cytometry. Next, the mouse peritoneal cells, Raw 264.7 cells and splenocytes were seeded in parallel. The following day, the cells were incubated with 1 μM CyNA-374 for 1 hour, then analyzed immediately using fluorescence microscopy.

[6] = system: mouse macrophage Raw 264.7 cell line; experiment: High-throughput cell imaging-based screen of CyNA library; conditions: Raw 264.7 vs mouse splenocytes
Method: In order to identify CyNA probes that could selectively stain mouse macrophage Raw 264.7 cell line (a mouse leukemic monocyte macrophage cell line), a library of CyNA compounds was assayed in a high-throughput cell imaging-based screen. The cell images were recorded using an automated imaging microscope system, IMAGEXPRESS MICRO™, and the fluorescent images were analyzed by cellular fluorescence intensity using METAXPRESS® image processing software.

[7] = system: M1 macrophages (LPS-activated Raw 264.7 cells); experiment: Staining of activated (M1) macrophages; assay type: cell-based, mouse; conditions: 1 μM, 1 hour
Method: To determine if CyNA-374 could stain activated macrophages, Raw 264.7 cells were activated to M1 macrophages. Raw 264.7 cells were plated at 5×10^6 cells/well and allowed to adhere. In some experiments, the cells were then starved for 12 hours, meaning that cells were washed with phosphate-buffered saline (PBS) and incubated in DMEM supplemented with 1% penicillin/streptomycin for 12 hours, but without 10% FBS. After 12 hours, the cells were exposed to 60 ng/mL LPS and, at the 24-hour time point, the supernatant from the cells stimulated by LPS was collected for measurement of NO2 using the Griess reaction. The unstimulated Raw 264.7 cells produced approximately 8.5 μmol/L NO2, while the stimulated Raw 264.7 (or M1) cells produced approximately 45 μmol/L NO2. The M1 cells were seeded in parallel with the unactivated Raw 264.7 cells and the splenocytes. The cells were incubated with 1 μM CyNA-374 for 1 hour, then analyzed using fluorescence microscopy.

[8] = Absorbance and fluorescence maximum wavelengths and quantum yields of the CyNA library; assay type: physicochemical; conditions: for λabs, absorbance maximum wavelength / λem, fluorescence maximum wavelength: CyNA library; for φ, quantum yield: in DMSO, Cardiogreen as standard
In short: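 Absorption and emission maxima and quantum yields of the 80-member amine-derivatized CyNA library were measured on a plate spectrophotometer.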

[9] = Primary screening of photostability of the CyNA library (time-course fluorescence, 8 h); assay type: physicochemical; design: F/Fo, fluorescent intensity at 8 hours vs 0 hours: unit: %; conditions: 10 μM in HEPES 100 mM pH 7.4, 2% DMSO
In short: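 CyNA dyes at 10 μM in 100 mM HEPES pH 7.4 with 2% DMSO irradiated by xenon lamp for 8 h. Fluorescence (ex/em 790-820 nm) read every 10 min; stability given as F8h/Fo.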

[10] = in DMSO; cited from earlier work
[11] = Rates of photobleaching of CyNA-414 and CyN-414; assay type: physicochemical; conditions: for k, rate of photobleaching: 10 μM in 10 mM HEPES pH 7.4, 1% DMSO, xenon flash lamp, 12 hours
Method: 10-μM solutions of CyNA-414 and CyN-414 in 10 mM HEPES buffer (pH 7.4) containing 1% DMSO were placed in a 96-well black plate, and fluorescence intensity measurements (n=3) were recorded every 10 minutes for a total period of 12 hours (excitation-emission: 640-750 nm for CyN-414, and 790-820 nm for CyNA-414) under a xenon flash lamp. Values were fitted to a non-linear regression one-phase exponential decay (GraphPad Prism 5.0).

[12] = assay type: physicochemical
Method: As a primary evaluation of photo stability, the decrease in fluorescence intensity of the 80 CyNA compounds was measured (see Table 2). The average decrease in fluorescence intensity after 8 hours of irradiation by a xenon lamp was approximately 18%. A subset of the most photostable compounds (i.e., F/Fo reported in Table 2 was greater than or equal to 95) was examined under stronger irradiation in various buffers.
10-μM CyNA solutions in 10 mM HEPES buffer (pH 7.4) or PBS (pH 7.3) containing 1% DMSO were placed in a 96-well black plate, and irradiated for periods of 15 minutes up to 2 hours with a high-intensity UV lamp (100 W, 365 nm) at a 2-cm distance. Values are represented as means (n=2), and fitted to a non-linear regression one-phase exponential decay (GraphPad Prism 5.0). Results not shown.

[13] = Time-course fluorescence measurements (photobleaching rate constants) of CyN and CyNA derivatives in HEPES buffer; assay type: physicochemical; conditions: 10 μM in 10 mM HEPES pH 7.4, 1% DMSO; pseudo-first order
Method: Values were fitted to a non-linear regression one-phase exponential decay (GraphPad Prism 5.0). Detailed statistics for the one-phase decay analysis of the CyN compounds and 1 follow: Photodecomposition rate constants were determined by plotting -ln(F/F0) vs time, and calculated using a pseudo-first order rate equation. See […]., et al., Photochem. Photobiol. 2000, 72, 392-398.

[14] = Absorbance/fluorescence maxima, quantum yields and extinction coefficients of CyN compounds; assay type: physicochemical
Method: The absorbance and fluorescence maximum wavelengths and extinction coefficients of CyN-111, 165, 272 and 295 were measured using 10-μM solutions of CyN-111, CyN-165, CyN-272 or CyN-295 in 10 mM HEPES buffer (pH 7.4) containing 1% DMSO. Quantum yields were measured in DMSO, using Cardiogreen as a standard (φ: 0.13, in DMSO).

[15] = 10 μM in 10 mM HEPES pH 7.4, 1% DMSO

photostability relative to ICG-sulfo-OSu ([1]; 10 μM in PBS pH 7.3, 1% DMSO): 15 fold | maximum relative fluorescence units (rfu) [1]: 708 rfu | formation of aggregates in aqueous solution [3]: little to no formation of aggregates | Quantum Yield (DMSO) [4]: 13% | Quantum Yield (aqueous media) [4]: 3.3% | ε (aqueous media) [4]: 108,000 M^−1 · cm^−1
SMILES: CCCN1/C(=C/C=C2\CCCC(/C=C/C3=[N+](CCC)c4ccccc4C3(C)C)=C2N(CCCN2CCCCC2C)C(=O)CCCC(=O)ON2C(=O)CCC2=O)C(C)(C)c2ccccc21 (centres unmarked) [CyNE790]
fluorescence intensity and photostability after protein conjugation [2]: maintains its superior fluorescence intensity and photostability | fluorescent properties compared to ICG and ICG-sulfo-OSu ([4]; 10 μM in PBS, 1% DMSO, excitation 760 nm, FIG. 7B): superior fluorescent properties to both ICG and ICG-sulfo-OSu

λabs, absorbance maximum wavelength [8]: 806 nm | λem, fluorescence maximum wavelength [8]: 821 nm | φ, quantum yield [8]: 0.14 | F/Fo, fluorescent intensity at 8 hours vs 0 hours [9]: 94% | max RFU, maximum relative fluorescence units [9]: 1224.6
SMILES: CCCN1/C(=C/C=C2\CCCC(/C=C/C3=[N+](CCC)c4ccccc4C3(C)C)=C2N(Cc2ccccc2)C(C)=O)C(C)(C)c2ccccc21 [CyNA-374]
staining by fluorescence microscopy [5]: stained both the Raw 264.7 cells and the mouse peritoneal cells | selective staining in cell imaging screen [6]: selectively stained mouse macrophages, but not mouse splenocytes | staining of activated macrophages [7]: stained both the unactivated Raw 264.7 cells and the M1 cells

SMILES: CC1(C)C(/C=C/C=C/C=C/C=C2\N(CCCCS(=O)(=O)[O-])c3ccc4ccccc4c3C2(C)C)=[N+](CCCCS(=O)(=O)[O-])c2ccc3ccccc3c21.[Na+] [Cardiogreen]
φ of quantum yield standard [10]: 0.13

maximum relative fluorescence units (rfu) [1]: 136 rfu | absorbance maximum in DMSO ([3]; 10 μM, DMSO): 780 nm | absorbance maximum in PBS ([3]; 10 μM, PBS): 695 nm | formation of aggregates in aqueous solution [3]: formation of aggregates | Quantum Yield (DMSO) [4]: 12% | Quantum Yield (aqueous media) [4]: 0.4% | ε (aqueous media) [4]: 42,000 M^−1 · cm^−1
SMILES: CC1(C)C(/C=C/C=C/C=C/C=C2\N(CCCCS(=O)(=O)[O-])c3ccc4ccccc4c3C2(C)C)=[N+](CCCCCC(=O)ON2C(=O)CC(S(=O)(=O)[O-])C2=O)c2ccc3ccccc3c21.[Na+] (centres unmarked) [ICG-sulfo-OSu, reference compound]

SMILES: CCCN1/C(=C/C=C2\CCCC(/C=C/C3=[N+](CCC)c4ccccc4C3(C)C)=C2N(CCCN2CCCCC2C)C(C)=O)C(C)(C)c2ccccc21.[I-] (centres unmarked) [CyNA-414]
λabs, absorbance maximum wavelength [8]: 804 nm | λem, fluorescence maximum wavelength [8]: 819 nm | φ, quantum yield [8]: 0.13 | F/Fo, fluorescent intensity at 8 hours vs 0 hours [9]: 100 | max RFU, maximum relative fluorescence units [9]: 925.5 | k, rate of photobleaching [11]: 2.5e-06 s⁻¹ | kCyN/kCyNA ([11]; CyN-414 vs CyNA-414): 7 | photostability under stronger irradiation in various buffers [12]: best photostability

k, rate of photobleaching [11]: 1.75e-05 s⁻¹
SMILES: CCCN1/C(=C/C=C2\CCCC(/C=C/C3=[N+](CCC)c4ccccc4C3(C)C)=C2NCCCN2CCCCC2C)C(C)(C)c2ccccc21.[I-] (centres unmarked) [CyN-414]

k, rate of photobleaching [13]: 3.49e-05 s⁻¹ | ε, extinction coefficient [14, 15]: 0.352 · 10^5 cm^−1M^−1 | λabs [14, 15]: 640 nm | λem [14, 15]: 762 nm | φ, quantum yield ([14]; in DMSO, Cardiogreen as standard): 0.37
SMILES: CCCN1/C(=C/C=C2\CCCC(/C=C/C3=[N+](CCC)c4ccccc4C3(C)C)=C2NCCCOC)C(C)(C)c2ccccc21.[I-] [CyN-165]
